# Legend:
# wild type dogs = conditions: dog, in vivo
# Method: (§1) For mice muscles, histopathological assessment was performed as earlier described. For canine samples, CS, lateral gastrocnemius, vastus lateralis, and diaphragm muscles were assessed at the end of the 4-month treatment period when dogs were necropsied. Muscle samples were snap frozen in isopentane cooled in liquid nitrogen, and stored at -80°C. A total of 16 dogs (3 wild type, 2 wild type + NBD, 5 untreated GRMD, and 6 GRMD + NBD) were assessed. Serial frozen sections (n = 10 per dog) from each muscle were processed. For each stain, quantitation was performed on three 10 μm sections of each muscle. To determine the degree of inflammation, cells that stained with a canine specific macrophage PM2K antibody were quantitated. Muscle damage was assessed by scoring for IgG-positive myofibers using immunofluorescence, and necrotic foci by hematoxylin and eosin (H&E) staining. Centrally located nuclei (CLN) were quantified on H&E sections to determine the degree of regeneration. Staining was quantitated on an Olympus BX51 microscope with Microsuite Five software (Olympus Soft Imaging Solutions GmbH, Center Valley, PA, USA). A composite score for all four muscles, reflecting muscle injury, inflammation, and regeneration, was determined.
# GRMD dogs [1] = experiment: Histopathologic assessment of skeletal muscles, GRMD dogs; type: in vivo, dog
# Method: as §1
# GRMD dogs [2] = experiment: Cranial sartorius (CS) circumference, GRMD dogs; type: in vivo, dog; conditions: age 6 months, NBD 10 mg/kg IV 3x weekly for 4 months, n = 6
# Excerpt: We have previously shown that the CS muscle undergoes dramatic hypertrophy in GRMD dogs and that this hypertrophy tracks with postural abnormalities. Accordingly, we use CS circumference measured at surgery during routine biopsy as a surrogate for muscle hypertrophy and associated postural changes in GRMD [24]. Dogs were anesthetized (above), and an incision was made over the cranial aspect of the thigh. In advance of biopsy, the CS muscle was isolated. Nylon suture was placed around the muscle at approximately midsection and tightened so as to snugly encircle the muscle belly. The two ends of the suture were secured with a pair of hemostats and then cut on the muscle side of the hemostat. The length in mm was divided by body mass in kg (mm/kg). An average of two measurements was recorded.
# wild type and GRMD dogs = conditions: dog, in vivo
# Excerpt: Necropsies were completed on all six of the NBD-treated GRMD dogs and two of the wild type dogs. Sections of kidney, liver, spleen, lung, heart (right and left ventricle), popliteal lymph node, adrenal gland, thyroid, duodenum, large intestine, pancreas, stomach, and cerebrum were collected and fixed in 10% buffered formalin. Tissues were sent to Histo-Scientific Research Laboratories in Frederick, MD, USA, a contract research laboratory where they were processed, embedded in paraffin, sectioned, and stained with H&E. An American College of Veterinary Pathology-certified pathologist evaluated slides.
# mdx mice = experiment: Histopathology of quadriceps muscles of NBD-treated mdx mice; type: in vivo, mouse; conditions: 4 weeks, Quad muscles
# Method: Mdx mice (C57BL/10ScSn-DMD^mdx/J) were purchased from The Jackson Laboratory and housed in the animal facility (University Laboratory Animal Resources, ULAR) at The Ohio State University under conventional conditions with constant temperature and humidity, and fed with standard diet. Treatment of mice was performed between 5 and 7 weeks of age as earlier described, and in accordance with the guidelines of the Institutional Animal Care and Use Committee at The Ohio State University. Efficacy of NBD was assessed comparing four groups (n = 5 each) of mdx mice treated either with vehicle or 3, 2, or 1 × per week with NBD by intraperitoneal (IP) delivery. Two separate groups (n = 10) were dosed subcutaneously (SQ) with vehicle or NBD, and finally two groups (n = 5) were treated with vehicle or NBD by intravenous (IV) delivery. Vascular access ports (VAP) were placed subcutaneously over the dorsal torso and a catheter was surgically inserted into the jugular vein. The catheter was kept clear by a pre- and post-wash with heparin.
# as §1, with “Serial frozen sections (n = 10 per dog) from each muscle were processed.” left out, “A composite score for all four muscles, reflecting muscle injury, inflammation, and regeneration, was determined.” left out
# [3] = dog, in vivo, iv
# Excerpt: Having established a treatment regimen that provides efficacy of NBD in mice, we next asked whether such therapy could be applied to a larger animal model of DMD. […] In addition, normal hematology (white blood cell, red blood cell, platelet counts) and serum chemistry (ALT, AST, GGT, bilirubin, creatinine, potassium, creatine kinase) profiles were noted following a single IV injection of NBD in normal dogs (data not shown). Based on our collective data, a preclinical trial in GRMD dogs was initiated with four primary outcomes: skeletal muscle function, MRI of pelvic limb muscles, histopathologic features of skeletal muscles, and safety. Juvenile GRMD (n = 6) and wild type (n = 3) dogs at 2 months of age were treated for 4 months by IV infusions, 3× weekly, at 10 mg/Kg. Results were compared with those collected from untreated GRMD and wild type dogs through a separate, natural history study.
# [4] = Average rescue of 4 muscles, NBD 10 mg/kg IV 3x weekly for 4 months
# [5] = Cranial sartorius, NBD 10 mg/kg IV 3x weekly for 4 months, p = 0.14
# [6] = Diaphragm, NBD 10 mg/kg IV 3x weekly for 4 months
# [7] = Lateral gastroc, NBD 10 mg/kg IV 3x weekly for 4 months
# [8] = Vastus lateralis, NBD 10 mg/kg IV 3x weekly for 4 months
sequence,measurement,setting,value
"TALDWSWLQTE [NBD, NBD peptide (…) fused to an Antennapedia protein transduction domain]",Histopathological lesions in NBD treated versus untreated wild type dogs,wild type dogs,negligible
same,"Inflammation (PM2K-positive macrophages), percent difference GRMD vs GRMD + NBD",GRMD dogs [1]; [4],35.5%
same,"Necrosis (IgG-positive myofibers), percent difference GRMD vs GRMD + NBD",GRMD dogs [1]; [4],30.3%
same,"Regeneration (centrally located nuclei), percent difference GRMD vs GRMD + NBD",GRMD dogs [1]; [4],40.8%
same,"Inflammation (PM2K-positive macrophages), percent difference GRMD vs GRMD + NBD","GRMD dogs [1]; Cranial sartorius, NBD 10 mg/kg IV 3x weekly for 4 months, p < 0.05",34%
same,"Necrosis (Foci, H&E), percent difference GRMD vs GRMD + NBD",GRMD dogs [1]; [5],25%
same,"Necrosis (IgG-positive myofibers), percent difference GRMD vs GRMD + NBD",GRMD dogs [1]; [5],22%
same,"Regeneration (centrally located nuclei), percent difference GRMD vs GRMD + NBD","GRMD dogs [1]; Cranial sartorius, NBD 10 mg/kg IV 3x weekly for 4 months, reduced, p < 0.05",43%
same,"Inflammation (PM2K-positive macrophages), percent difference GRMD vs GRMD + NBD",GRMD dogs [1]; [6],37%
same,"Necrosis (Foci, H&E), percent difference GRMD vs GRMD + NBD",GRMD dogs [1]; [6],37%
same,"Necrosis (IgG-positive myofibers), percent difference GRMD vs GRMD + NBD",GRMD dogs [1]; [6],32%
same,"Regeneration (centrally located nuclei), percent difference GRMD vs GRMD + NBD",GRMD dogs [1]; [6],41%
same,Final Histological Score of Improvement (composite of all four muscles),"GRMD dogs [1]; GRMD + NBD vs untreated GRMD, NBD 10 mg/kg IV 3x weekly for 4 months",35.5%
same,Reduction of CS myofiber size vs untreated GRMD muscles,"GRMD dogs [1]; GRMD + NBD, n = 6, 1800 fibers, P <0.05",46%
same,"Inflammation (PM2K-positive macrophages), percent difference GRMD vs GRMD + NBD",GRMD dogs [1]; [7],40%
same,"Necrosis (Foci, H&E), percent difference GRMD vs GRMD + NBD",GRMD dogs [1]; [7],34%
same,"Regeneration (centrally located nuclei), percent difference GRMD vs GRMD + NBD",GRMD dogs [1]; [7],35%
same,"Inflammation (PM2K-positive macrophages), percent difference GRMD vs GRMD + NBD",GRMD dogs [1]; [8],31%
same,"Necrosis (IgG-positive myofibers), percent difference GRMD vs GRMD + NBD",GRMD dogs [1]; [8],32%
same,"Regeneration (centrally located nuclei), percent difference GRMD vs GRMD + NBD",GRMD dogs [1]; [8],44%
same,CS Circumference,GRMD dogs [2],3.67 ± 0.65 mm/kg
same,Necropsy findings,wild type and GRMD dogs,histopathological changes related to NBD
same,Histopathologic improvement with reduced treatment frequencies,"mdx mice; IP 10 mg/kg, 2x or 1x per week compared to 3x per week, n = 5 per group",less pronounced
same,Histopathologic improvement after intravenous dosing,"mdx mice; IV via VAP, 10 mg/kg 3x weekly, n = 5 per group",significant histopathologic improvement
same,Reduction of muscle inflammation and necrosis after subcutaneous dosing,"mdx mice; SQ 10 mg/kg 3x weekly, n = 10 per group",no such improvements were observed
same,Hematology and serum chemistry profiles,[3],normal

# — article PMC4364341, “NBD delivery improves the disease phenotype of the golden retriever model of Duchenne muscular dystrophy” (Skeletal Muscle, 2014)
